# “Also recorded” adds a separate entry of the source. Structures can show the parent of a compound that is named as a salt. Where two headings read alike, the source gives them in different places. *1 amine or outer side, *2 acyl side, *3 side chain or, on linkers, in order; H or OH if unused. Where a SMILES comes first, the peptide text is derived from it. Bridges are numbered along the chain shown (N, C = ends). Roman numbers before positions name the chains, in order. [ ]: non-standard residue; d: D form. Actinocin(9to1) = Cc1c2oc3c(C)ccc(C(=O)[*:1])c3nc-2c(C(=O)[*:2])c(N)c1=O; NMeV = CN[C@H](C(=O)O)C(C)C; Sar = CNCC(=O)O
# Tests used:
# [1] = mouse, in vivo
# [2] = system: Human colon carcinoma cells, SW-480; type: in vivo, mice
# [3] = mouse, in vivo; remark: listed apart in the source
# [4] = system: Human breast carcinoma cells, MDA-MB-231; type: in vivo, mice
# [5] = system: Human lung carcinoma cells A549; type: in vivo, mice
# [6] = cited from earlier work; for absorption: oral / gastrointestinal absorption; for peak concentration in plasma: usual clinical doses
# [7] = cited from earlier work
# [8] = physiological pH; cited from earlier work
# [9] = cited from earlier work; remark: listed apart in the source
# [10] = cited from earlier work; remark: listed apart in the source
# p53 [11] = type: cell-based
# [12] = design: species or system mice; settings: mouse, in vivo
# [13] = system: peripheral blood lymphocytes; design: species or system mice; settings: mouse, in vivo
# [14] = system: human adult foreskin keratinocytes; settings: cited from earlier work
# [15] = mouse, in vivo; remark: listed apart in the source
# MCF10A cells = type: cell-based, human
# [16] = mouse, in vivo; remark: listed apart in the source
# p53 [17] = assay: C57BL/6 WT and p53 R172P knock-in mice, protection by arsenic (body weight); type: in vivo; settings: p53 mutant (R172P knock-in) mice, in contrast with wild type littermates
# Procedure: Mutant p53 expressing mouse model was employed to test whether the observed protective effect of arsenic was mediated by p53 inactivation. Black C57BL/6 WT or p53 R172P knock in mice at age of 4-6 weeks old) were obtained from Dr. Lazona. Mice were housed under pathogen-free conditions and maintained on a 12 h light/12 h dark cycle, with food and water supplied ad libitum., mice were randomized into following groups; control; X-ray irradiation only; arsenite and X-ray irradiation. For arsenite pretreatment, mice were fed with water containing sodium arsenite (as 1.0 mg/L) for 3 days. Mice were then irradiated with 2Gy TBI daily for one week. Body weight was monitored throughout the period of the experiment. The numbers are means±SE from two independent experiments with total of 10 mice per group.
# [18] = 5FU 30 mg/kg i.v. daily for one week
molecule,measurement,setting,value
"O=c1[nH]cc(F)c(=O)[nH]1 [5FU, Fluorouracil]",damage to small intestine and bone marrow cells,[1],severe damages to small intestine and bone marrow cells
same,tumor volume,[2]; [18],marked tumor regression
same,bone marrow cellularity,[3],Bone marrow cell exhaustion
same,damage to the small intestine (crypt size and morphology),[3],severe damages to the small intestine
same,tumor volume,[4]; [18],marked tumor regression
same,tumor volume,[5]; 5FU 30 mg/kg intravenous daily for one week,marked tumor regression
"Cc1c2oc3c(C)ccc(C(=O)N[C@@H]4C(=O)N[C@H](C(C)C)C(=O)N5CCC[C@H]5C(=O)N(C)CC(=O)N(C)[C@@H](C(C)C)C(=O)O[C@@H]4C)c3nc-2c(C(=O)N[C@@H]2C(=O)N[C@H](C(C)C)C(=O)N3CCC[C@H]3C(=O)N(C)CC(=O)N(C)[C@@H](C(C)C)C(=O)O[C@@H]2C)c(N)c1=O [Actinomycin D] (I: T[dV]P[Sar][NMeV] / II: T[dV]P[Sar][NMeV]; ester I:1-I:C, II:1-II:C; linker I:N-II:N via Actinocin(9to1))",excreted into the urine,[6]; in vivo,10%
same,half-life,[6]; in vivo,about 36 hr
same,part of the dose excreted intact into the bile,[6]; in vivo,Half
same,passage of the blood-brain barrier,[6]; in vivo,does not pass the blood-brain barrier
"CS(=O)(=O)OCCCCOS(C)(=O)=O [Busulfan, 1,4-butanediol dimethanesulfonate]",adults obtaining hematologic remission,[7]; previously untreated chronic myelogenous leukemia,Approximately 90%
"O=C(O)CCCc1ccc(N(CCCl)CCCl)cc1 [Chlorambucil, 4-(bis(2-chlorethyl)amino)benzenebutanoic acid]",absorption,[6],rapidly and completely absorbed
N.N.[Cl][Pt][Cl] [Cisplatin],absorption,[6],not absorbed orally
"COc1cccc2c1C(=O)c1c(O)c3c(c(O)c1C2=O)C[C@@](O)(C(C)=O)C[C@@H]3O[C@H]1C[C@H](N)[C@H](O)[C@H](C)O1 [Daunorubicin, 5,12-Naphthacenedione, (8S-cis)-8-acetyl-10-((3-amino-2,3,6-trideoxy-a-L-lyxo-hexanopyranosyl)oxy)-7,8,9,10-tetrahydro-6,8,11-trihydroxy-10-methoxy hydrochloride]",elimination half-life,[6]; in vivo,about 19 hr
same,secreted into the bile,[6]; in vivo,~40%
same,absorption,[6],poor
"COc1cccc2c1C(=O)c1c(O)c3c(c(O)c1C2=O)C[C@@](O)(C(=O)CO)C[C@@H]3O[C@H]1C[C@H](N)[C@H](O)[C@H](C)O1 [Doxorubicin, 5,12-Naphthacenedione, (8s-cis)-10-((3-amino-2,3,6-trideoxy-a-L-lyxo-hexopyranosyl)oxy)-7,8,9,10-tetrahydro-6,8,11-trihydroxy-8-(hydroxyacetyl)-1-methoxy-hydrochloride]",elimination half-life,[6]; in vivo,about 30 hr
same,excreted into the urine,[6]; in vivo,a few
same,absorption,[6],absorbed poorly
"O=NN(CCCl)C(=O)NC1CCCCC1 [Lomustine, 1-(2-chloro-ethyl)-3-cyclohexyl-1nitrosourea]",ionisation,[8],relatively unionized
same,tissue levels,"[6]; in vivo, iv",comparable to plasma levels
same,part of radioactivity excreted as degradation products within 24 hours,"[6]; in vivo, po",about half
"N[C@@H](Cc1ccc(N(CCCl)CCCl)cc1)C(=O)O [Melphalan, 4-(bis(2-chloroethyl)amino)-L-phenylalanine]",patients with a favorable response,"[7]; multiple myeloma, oral administration",one third to one half
CO[C@@]12[C@H](COC(N)=O)C3=C(C(=O)C(C)=C(N)C3=O)N1C[C@@H]1N[C@@H]12 [Mitomycin],time required to reduce the serum concentration by 50%,[9]; 30 mg bolus injection,17 min
same,dose excreted unchanged in the urine,"[9]; human, in vivo",Approximately 10%
CC[C@]1(O)C[C@@H]2CN(CCc3c([nH]c4ccccc34)[C@@](C(=O)OC)(c3cc4c(cc3OC)N(C)[C@H]3[C@@](O)(C(=O)OC)[C@H](OC(C)=O)[C@]5(CC)C=CCN6CC[C@]43[C@@H]65)C2)C1 [Vinblastine],"half-life of disappearance from plasma after distribution, first",[6]; after intravenous injection,approximately 1 hours
same,"half-life of disappearance from plasma after distribution, second",[6]; after intravenous injection,~20 h
same,excreted into the urine,[6]; in vivo,Approximately 15%
same,plasma protein binding,[6]; in vivo,bind to plasma proteins
same,recovered in the feces after biliary excretion,[6]; in vivo,about 10%
same,absorption,[6],Unpredictable absorption
same,peak concentration in plasma,[6],approximately 0.4 mM
CC[C@]1(O)C[C@H]2CN(CCc3c([nH]c4ccccc34)[C@@](C(=O)OC)(c3cc4c(cc3OC)N(C=O)[C@H]3[C@@](O)(C(=O)OC)[C@H](OC(C)=O)[C@]5(CC)C=CCN6CC[C@]43[C@@H]65)C2)C1 [Vincristine],plasma protein binding,[6]; in vivo,bind to plasma proteins
same,terminal half-life,[6]; multiphasic clearance from the plasma,about 24 hours
same,absorption,[6],Unpredictable absorption
same,peak concentration in plasma,[6],approximately 0.4 mM
COc1cccc2c1C(=O)c1c(O)c3c(c(O)c1C2=O)C[C@@](O)([C@H](C)O)C[C@@H]3O[C@H]1C[C@H](N)[C@H](O)[C@H](C)O1 [daunorubicinol],half-life,[6]; in vivo,about 27 hr
Bleomycin,tissue concentrations,[10]; hematopoietic tissue / bone marrow,low concentrations
same,tissue concentrations,"[10]; skin, lungs, kidneys, peritoneum, lymphatics",high concentrations
same,time to improvement,[7]; Hodgkin's Disease and testicular tumors,≤ 2 weeks
same,time to improvement,[7]; squamous cell cancers,≤ 3 weeks
same,administered dose recovered in the urine as active bleomycin,"[9]; human, in vivo",60% to 70%
same,plasma or serum terminal elimination half-life,"[9]; patients with creatinine clearance <35 mL per minute, as creatinine clearance decreases",increases exponentially
same,serum or plasma terminal elimination half-life,[9]; patients with creatinine clearance >35 mL per minute,approximately 115 minutes
sodium arsenite [arsenic],Hdm2 expression and p53 localisation,p53 [11],upregulation of Hdm2 and accumulation of p53 in the cytoplasm
same,p53 response to genotoxic stress,p53 [11],impaired p53 activation and apoptosis
same,duration of pretreatment adequate for optimal protection,[12],3 days
same,protection (body weight),[12],a protection less than 3-day pretreatment; also recorded: no further increase of benefits
same,day of complete return to untreated level of radiation-induced p53 accumulation and p21 expression,[13],9 days
same,day of partial recovery of radiation-induced p53 accumulation and p21 expression,[13],7 days
same,radiation-induced p53 accumulation and p21 expression,[13],suppressed
same,reversibility of p53 suppression,[13],temporary and reversible
same,body weight,[1],little loss of body weight
same,damage to small intestine and bone marrow cells after arsenic pretreatment,[1],significantly inhibited
same,therapy-induced body weight loss after arsenic pretreatment,[1],effectively prevented
same,effect of arsenic pretreatment on 5FU-induced tumor suppression,"[2]; mouse, in vivo",little effect
same,growth of the implanted tumors,"[2]; mouse, in vivo",did not have any detectable effect
same,5FU-induced body weight loss after arsenic pretreatment,[3],almost completely prevented
same,5FU-induced decrease of bone marrow cellularity after arsenic pretreatment,[3],considerably alleviated
same,5FU-induced small intestine damage after arsenic pretreatment,[3],significantly ameliorated
same,body weight,[3],little loss of body weight
same,cell proliferation (with enhanced NF-κB and AP-1 activity),[14],induced proliferation
same,cell viability,[14],statistically significant decrease of cell viability
same,effect of arsenic pretreatment on 5FU-induced tumor suppression,"[4]; mouse, in vivo",little effect
same,5FU-induced body weight loss after arsenic pretreatment,[15],almost completely prevented
same,reversibility of p53 inhibition,MCF10A cells,transient and can be completely reversed
same,time after arsenic removal until radiation-induced p53 activation is almost completely recovered,MCF10A cells,7 days
same,time in arsenic-free media until radiation-induced p53 activation is detectable,MCF10A cells,5 days
same,p53-dependent tissue damages induced by 5FU,[16],significantly blunted
same,effect of arsenic pretreatment on 5FU-induced tumor suppression,"[5]; mouse, in vivo",little effect
same,effect of arsenic pretreatment on irradiation-induced tumor suppression,"[5]; mouse, in vivo",little effect
same,growth of the implant tumors,"[5]; mouse, in vivo",did not have any detectable effect
same,protection against therapy-induced toxicity,p53 [17],little protection
